The text below walks through data of patent publication US20070249670A1, “Glycogen Phosphorylase Inhibitor Compounds and Pharmaceutical Compositions Thereof” (SMITHKLINE BEECHAM CORPORATION, priority 2004, published 2007).

Structures are written as SMILES.

For the test, the target named is T1, human liver glycogen phosphorylase a (HLGPa) (Homo sapiens, UniProt P06737).
T1 construct: creating a full-length cDNA fused at the 5′ end to codons for methionine-glycine-alanine-histidine; 6xHis tag (leader Met-Gly-Ala-His6-Gly-Gly) (N); made in house; host or cells: E. coli (bacterial expression plasmid pTXK1007LTev)
T1 sequence (P06737 2-847 limits assumed): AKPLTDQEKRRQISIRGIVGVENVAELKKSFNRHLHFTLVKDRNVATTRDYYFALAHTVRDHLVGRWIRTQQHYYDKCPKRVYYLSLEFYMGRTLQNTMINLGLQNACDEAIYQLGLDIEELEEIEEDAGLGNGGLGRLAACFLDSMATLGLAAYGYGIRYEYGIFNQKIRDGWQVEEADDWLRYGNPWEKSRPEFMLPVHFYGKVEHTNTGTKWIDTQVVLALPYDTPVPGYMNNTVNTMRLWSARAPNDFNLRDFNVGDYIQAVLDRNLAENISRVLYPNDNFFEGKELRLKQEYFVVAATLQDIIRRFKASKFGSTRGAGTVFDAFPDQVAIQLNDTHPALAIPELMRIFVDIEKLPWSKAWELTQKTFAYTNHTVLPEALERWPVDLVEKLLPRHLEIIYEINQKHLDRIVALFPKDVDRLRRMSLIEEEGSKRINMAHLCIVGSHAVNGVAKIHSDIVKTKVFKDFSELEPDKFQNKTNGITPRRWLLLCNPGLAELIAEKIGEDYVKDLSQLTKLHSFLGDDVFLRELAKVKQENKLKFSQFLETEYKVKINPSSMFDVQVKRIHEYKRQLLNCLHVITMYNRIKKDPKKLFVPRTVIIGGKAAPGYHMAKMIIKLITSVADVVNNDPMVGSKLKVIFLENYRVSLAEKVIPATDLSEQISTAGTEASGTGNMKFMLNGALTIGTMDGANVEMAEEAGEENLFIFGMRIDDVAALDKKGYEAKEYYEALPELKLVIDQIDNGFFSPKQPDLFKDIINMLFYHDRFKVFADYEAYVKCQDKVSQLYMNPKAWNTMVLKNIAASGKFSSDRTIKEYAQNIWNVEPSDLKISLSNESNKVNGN
Nature of the test: Human liver glycogen phosphorylase a enzymatic activity assay (coupled, fluorescent resorufin readout, with and without 10 mM glucose). The test is classed as biochemical. As to conditions: human liver glycogen phosphorylase a enzymatic activity assay.

For the compound `Cc1cccc(C)c1NC(=O)Nc1cc(F)c(F)cc1C(=O)N[C@@H](CC1CCCCC1)C(=O)O` [Example 118, 3-cyclohexyl-N-[2-({[(2,6-dimethylphenyl)amino]carbonyl}amino)-4,5-difluorobenzoyl]-L-alanine], half-maximal inhibition (IC50) was put at 15.7 µM. The compound `COc1cc(NC(=O)Nc2c(C)cccc2C)c(C(=O)N[C@@H](CC2CCCCC2)C(=O)O)cc1OC` [Example 119, 3-cyclohexyl-N-[2-({[(2,6-dimethylphenyl)amino]carbonyl}amino)-4,5-dimethoxybenzoyl]-L-alanine] had an IC50 of 13.6 µM. The IC50 values of the last two compounds are within 1.5-fold of each other. As to `CCc1cccc(CC)c1NC(=O)Nc1cc2ccccc2cc1C(=O)NC(C(=O)O)c1ccccc1` (centres unmarked) [Example 120, {[3-({[(2,6-diethylphenyl)amino]carbonyl}amino)-2-naphthoyl]amino}(phenyl)acetic acid], the IC50 turned out to be 24.6 µM. Compared with the last compound, the IC50 is about 1.8-fold higher. Turning to `CCc1cccc(CC)c1NC(=O)Nc1cc(Cl)ccc1C(=O)N[C@H](Cc1ccccc1F)C(=O)O` [Example 121, N-[4-chloro-2-({[(2,6-diethylphenyl)amino]carbonyl}amino)benzoyl]-2-fluoro-D-phenylalanine], the midpoint of inhibition, the IC50, lay at 3.44 µM.

In turn, `Cc1cccc(Cl)c1NC(=O)Nc1cc2ccccc2cc1C(=O)N[C@@H](CC1CCCCC1)C(=O)O` [Example 122, N-[3-({[(2-chloro-6-methylphenyl)amino]carbonyl}amino)-2-naphthoyl]-3-cyclohexyl-L-alanine] showed an IC50 of 2.23 µM.

In the case of `Cc1cccc(Cl)c1NC(=O)Nc1cc2ccccc2cc1C(=O)NC(C(=O)O)c1ccccc1` (centres unmarked) [Example 123], the IC50 was determined as 0.27 µM. Against the preceding compound, the IC50 is about 8.3-fold lower.

`Cc1cccc(Cl)c1NC(=O)Nc1cc2ccccc2cc1C(=O)N[C@H](Cc1ccccc1F)C(=O)O` [Example 124, N-[3-({[(2-chloro-6-methylphenyl)amino]carbonyl}amino)-2-naphthoyl]-2-fluoro-D-phenylalanine] came in with an IC50 of 5.82 µM. On to `Cc1cccc(Cl)c1NC(=O)Nc1cc(Cl)ccc1C(=O)N[C@@H](CC1CCCCC1)C(=O)O` [Example 125, N-[4-chloro-2-({[(2-chloro-6-methylphenyl)amino]carbonyl}amino)benzoyl]-3-cyclohexyl-L-alanine], for which the IC50 came to 28.6 µM. Compound `CC[C@H](C)[C@H](NC(=O)c1c(NC(=O)Nc2c(C)cccc2C)sc2c1CCCC2)C(=O)O` [Example 126, N-{[2-({[(2,6-dimethylphenyl)amino]carbonyl}amino)-4,5,6,7-tetrahydro-1-benzothien-3-yl]carbonyl}-L-isoleucine] registered an IC50 of 13.9 µM. For the compound `CC[C@H](C)[C@H](NC(=O)c1c(NC(=O)Nc2c(C)cc(C)cc2C)sc2c1CCCC2)C(=O)O` [Example 127, N-[(2-{[(mesitylamino)carbonyl]amino}-4,5,6,7-tetrahydro-1-benzothien-3-yl)carbonyl]-L-isoleucine], 18.2 µM corresponded to half-maximal inhibition (IC50). In turn, `CC[C@H](C)[C@H](NC(=O)c1c(NC(=O)Nc2c(C)cccc2Cl)sc2c1CCCC2)C(=O)O` [Example 128, N-{[2-({[(2-chloro-6-methylphenyl)amino]carbonyl}amino)-4,5,6,7-tetrahydro-1-benzothien-3-yl]carbonyl}-L-isoleucine] yielded an IC50 of 14.8 µM.

`CC[C@H](C)[C@H](NC(=O)c1c(NC(=O)Nc2c(Cl)cccc2Cl)sc2c1CCCC2)C(=O)O` [Example 129, N-{[2-({[(2,6-dichlorophenyl)amino]carbonyl}amino)-4,5,6,7-tetrahydro-1-benzothien-3-yl]carbonyl}-L-isoleucine] came in with an IC50 of 7.97 µM.

`Cc1cccc(Cl)c1NC(=O)Nc1sc2c(c1C(=O)N[C@@H](CC(C)C)C(=O)O)CCCC2` [Example 130, N-{[2-({[(2-chloro-6-methylphenyl)amino]carbonyl}amino)-4,5,6,7-tetrahydro-1-benzothien-3-yl]carbonyl}-L-leucine] came in with an IC50 of 18 µM. Against the preceding compound, the IC50 is about 2.3-fold higher.

As to `CC(C)C[C@H](NC(=O)c1c(NC(=O)Nc2c(Cl)cccc2Cl)sc2c1CCCC2)C(=O)O` [Example 131, N-{[2-({[(2,6-dichlorophenyl)amino]carbonyl}amino)-4,5,6,7-tetrahydro-1-benzothien-3-yl]carbonyl}-L-leucine], the IC50 was 9.96 µM.
